What all share (assay type): cell-based, mouse
The subject of test [1] is intestinal stem cells (ISCs). The test can be described thus: ISC colony formation efficiency / ISC expansion in hydrogels. The note with it: for ISC colony formation, ECM component in combination with RGD / ISC colony formation / self-renewal, ECM component alone: component in soft (300 Pa) or stiff (1300 Pa) PEG matrices; for ISC colony formation / self-renewal, ECM component alone: without RGD; for Expansion of Lgr5+ cells: supplement to standard intestinal organoid growth medium, PEG-RGD culture. As for the experimental part: Freshly isolated crypts or single cells from dissociated colonies were added to the Matrigel or hydrogels precursor solution and cast in 20-μL droplets at the bottom of wells in 24-well plate. […] For single cell culture, thiazovivin (2.5 μM; Stemgent) and Jagged-1 peptide ([…]; Anaspec) was included in the medium during the first two days. Broad spectrum protease inhibitor, GM6001, was added to the medium while embedding the cells in PEG hydrogels. Every two days the growth factors were replenished and the full medium was changed.
(§1) To quantify the colony formation efficiency of single embedded ISCs, phase contrast z-stacks spanning the entire thickness of the cell-laden Matrigel or PEG gels were collected (Zeiss Axio Observer Z1) at 5 different locations within the gels. The Cell Counter plugin in ImageJ (NIH) was used to quantify the fraction of cells which had formed colonies at day 4 after seeding. To assess the viability of intestinal tissue fragments embedded in PEG, phase contrast images of the entire gel were collected. The fraction of viable tissues was estimated based upon the epithelial morphology: tissues that featured an epithelial monolayer surrounding a central lumen after 24 h of embedding were deemed viable.

Test [2] concerns ISC colonies. The test can be described thus: ISC colony differentiation and intestinal organoid formation. As to conditions: for Organoid formation from ISCs grown in soft laminin-containing gels: after switching to organoid formation conditions; for ISC colony differentiation and organoid formation in soft PEG-RGD gels supplied with an ECM component: colonies grown in 1 kPa PEG-RGD, transferred into soft F-PEG-RGD, differentiation conditions. How it is done:
To induce stem cell differentiation and organoid formation, the medium was removed, the gels were incubated in PBS (1 hr, […]) to remove residual CHIR99021 and valproic acid, and fresh medium containing EGF, Noggin and Respondin was added. In general, growth factors were replenished every two days, with full medium change taking place every four days.
Intestinal organoids embedded in Matrigel or PEG were fixed with 4% paraformaldehyde (PFA) in PBS (30 min, RT). The fixation process typically led to complete degradation of the Matrigel. […] Following resuspension in water, the organoids were spread on glass slides and allowed to attach by drying. Attached organoids were rehydrated by adding PBS. Following fixation, organoids embedded in PEG or spread on glass were permeabilized with 0.2% Triton X-100 in PBS (1 h, RT) and blocked (10% goat serum in PBS containing 0.01% Triton X-100) for at least 2 h. Samples were subsequently incubated with blocking buffer-dissolved phalloidin-Alexa 546 (Invitrogen) and primary antibodies against lysozyme (1:50; Thermo Scientific) or mucin-2 (1:25; Santa Cruz) (overnight, 4° C.). After washing with PBS for 3 h (during which PBS was replaced every hour), samples were incubated with secondary antibody (Alexa 647) organoids were imaged in epifluorescence (Zeiss Axio Observer Z1) or confocal (Zeiss LSM 710) mode.

For test [3], the system named is freshly-isolated intestinal crypts. Briefly: Survival and morphogenesis of freshly isolated intestinal crypts embedded in 3D matrices. As to conditions: component presented alongside RGD in PEG-RGD hydrogel. The source says: Matrigel is currently used to grow epithelial organoids. To address the question of whether Matrigel serves as merely a passive 3D scaffold, providing physical support, or actively influences organoid formation by presenting essential cues, freshly-isolated intestinal crypts were embedded into enzymatically crosslinked PEG hydrogels, which are soft and hydrated and thus mimic the basic physical properties of Matrigel without providing any biochemical signals.
Intestinal crypt isolation: Mouse intestine crypts were isolated following procedures known in the art. Briefly, the proximal part of the intestine was harvested, opened longitudinally and washed with ice-cold PBS. The luminal side of the intestine was scraped using a glass slide to remove luminal content and villous structures. After washing with ice-cold PBS again, the intestine was cut into 2-4 mm pieces with scissors. The pieces were transferred to a 50 ml Falcon tube and further washed with cold PBS (5-10 times) with gentle vortexing. […]
To quantify the colony formation efficiency of single embedded ISCs, phase contrast z-stacks spanning the entire thickness of the cell-laden Matrigel or PEG gels were collected (Zeiss Axio Observer Z1) at 5 different locations within the gels. The Cell Counter plugin in ImageJ (NIH) was used to quantify the fraction of cells which had formed colonies at day 4 after seeding. […]

Test [4] concerns intestinal organoids. The test can be described thus: Viability, growth and morphogenesis of intestinal organoids / tissue fragments in hydrogels.
Source text: To identify a short sequence that supports intestinal cell survival, a library of soft (G′=200 Pa) hydrogels was created, in which specific binding sequences from the laminin al subunit (Table 1) were tethered to the PEG backbone.
as §1

The test system of test [5] is Lgr5-EGFP. The test can be described thus: Lgr5-EGFP reporter expression in colonies and organoids. As to conditions: cultured in the presence of collagen-I. The source says:
Lgr5-EGFP was expressed in the expected pattern, localized to the crypt-like buds of the organoids (FIG. 3B). […] Stem cell differentiation into functional cell types was confirmed by immunofluorescence analysis. Staining for lysozyme verified the presence of Paneth cells in the expected locations, interspersed with Lgr5+ stem cells in the characteristic checkerboard pattern (FIG. 3F). The organoids therefore retained the normal characteristics of epithelial cell organoids during culture in the hydrogels.
Intestinal crypts were extracted from 5-10 week old heterozygous Lgr5-EGFP-IRES-CreERT2 mice (Jackson Laboratory), following animal experimentation protocols prescribed by EPFL and FELASA.

“Also recorded” adds a separate entry of the source.

For “laminin-511: ECM component incorporated in PEG hydrogels”, in test [1], the “ISC colony formation, ECM component in combination with RGD” value (“ISC colony formation, ECM component” for short) is listed as “no effect” and the “ISC colony formation / self-renewal, ECM component alone” value (“ISC colony formation / self-renewal” for short) was “no effect”.
Regarding `CCCC(CCC)C(=O)O` [valproic acid, reference compound], the “Expansion of Lgr5+ cells” value in test [1] is “increased”.
For “Laminin-111: extracellular matrix glycoprotein, heterotrimer of α, β and γ chain”, in test [2] (listed as laminin), the “Organoid formation from ISCs grown in soft laminin-containing gels” value is “give rise to organoids”. The “Organoid formation from ISCs grown in soft laminin-containing gels” value in test [2] (listed as laminin-111) is listed as “a small portion of the ISC colonies gave rise to intestinal organoids”. The “ISC colony differentiation and organoid formation in soft PEG-RGD gels supplied with an ECM component” value in test [2] was “pronounced morphogenesis and organoid formation; also recorded: required for organoid formation”. Moreover, in test [1], the “ISC colony formation, ECM component” value is on record as “increased colony formation efficiency” and the “ISC colony formation / self-renewal” value is on record as “effectively supported colony formation in soft matrices; also recorded: supports ISC colony formation within soft matrices”. Besides, the “Stiffness at which ISC colony formation efficiency peaks” value in test [1] (laminin-containing gels) is 700 Pa. Moreover, the ISC colony formation in test [1] (soft hydrogels containing both RGD and laminin-111) is given as 30-50%. In addition, in test [1] (soft, 300 Pa hydrogel), the “Efficiency in inducing ISC colony formation compared with RGD” value is on record as “significantly more efficient”.
Consider `Cc1c[nH]c(-c2cnc(NCCNc3ccc(C#N)cn3)nc2-c2ccc(Cl)cc2Cl)n1` [CHIR99021, reference compound], for which the “Expansion of Lgr5+ cells” value in test [1] is reported as “increased”.
As for Hyaluronic acid [reference compound], the “ISC colony differentiation and organoid formation in soft PEG-RGD gels supplied with an ECM component” value in test [2] is “failed to support ISC colony differentiation and organoid formation”. The Crypt viability result in test [3] is given as “synergistic increase in crypt viability”. Besides, the “ISC colony formation, ECM component” value in test [1] was “did not appear to influence”.
For the molecule “Perlecan: ECM component incorporated in PEG hydrogels”, the “ISC colony differentiation and organoid formation in soft PEG-RGD gels supplied with an ECM component” value in test [2] is “failed to support ISC colony differentiation and organoid formation”. In test [1], the “ISC colony formation, ECM component” value was “starkly increased colony formation efficiency” and the “ISC colony formation / self-renewal” value is listed as “did not alter ISC self-renewal”.
As to Fibronectin, in test [2], the “ISC colony differentiation and organoid formation in soft PEG-RGD gels supplied with an ECM component” value was “failed to support ISC colony differentiation and organoid formation”. For the same molecule, in test [1], the “ISC colony formation, ECM component” value is on record as “no added effect” and the “ISC colony formation / self-renewal” value is listed as “appreciable colony formation only in stiff matrices”.
As for “Arginine-Glycine-Aspartic Acid [RGD, reference compound]”, in test [1] (RGD-containing gels of varying stiffness), the “Shear modulus at which ISC expansion / colony formation efficiency is optimal” value is listed as 1.3 kPa. Besides, in test [1] (TG-PEG-RGD, varying RGD), the “RGD concentration at which ISC colony formation efficiency reached a plateau” value is “approximately 500 μM”.
Regarding `CNC(=O)[C@H](Cc1c[nH]c2ccccc12)NC(=O)[C@@H](CC(=O)NO)CC(C)C` [GM6001, reference compound], in test [1] (printed: within non-degradable gels, high stiffness), the “Colony formation efficiency on blocking MMP activity, high matrix stiffness” value was “reduced it to levels observed in non-degradable gels”. Moreover, the “Colony formation efficiency on blocking MMP activity, low matrix stiffness” value in test [1] (printed: within non-degradable gels, low stiffness) is given as “did not alter colony formation efficiency”.
For the molecule `Cc1ccc2c(c1)C(=O)C1(O)CCN(c3ccccc3)C1=N2` (stereo not drawn) [blebbistatin, reference compound], the “Effect of blocking myosin-mediated contractility on colony formation efficiency” value in test [1] (PEG-RGD matrices of varying stiffness) is “abolished the stiffness-induced increase in colony formation efficiency”.
For “RKRLQVQLSIRT [AG73, synthetic peptide derived from the globular domain of the laminin al chain]”, the “ISC colony differentiation and organoid formation in soft PEG-RGD gels supplied with an ECM component” value in test [2] is “showed some early signs of differentiation and morphogenesis; also recorded: failed to support ISC colony differentiation and organoid formation”. Moreover, the Organoid viability entry in test [4] (soft (G'=200 Pa) PEG hydrogels with tethered laminin a1 subunit binding sequences) is on record as “significantly enhanced organoid viability”. In addition, in test [4] (varying amount of AG73 tethered to PEG gel backbone), the “Effect of amount of tethered AG73 on organoid viability and growth” value is reported as “dose-dependent effect; also recorded: concentration-dependent”. Besides, the Crypt viability entry in test [3] is given as “synergistic increase in crypt viability”.
Turning to “Collagen-I: ECM component incorporated in PEG hydrogels”, the “Lgr5-EGFP in viable cells and colonies” value in test [5] was “largely devoid of Lgr5-EGFP”. Also, the “ISC colony formation, ECM component” value in test [1] was “did not have a striking effect”. For the same molecule, in test [1] (soft hydrogels with collagen-I and RGD), the ISC morphology result was “adopted a spindle-like morphology”.

The values above are taken from patent publication US10934529B2, “Three dimensional hydrogels for culturing organoids” (Ecole Polytechnique Fèdèrale de Lausanne, priority 2015, dated 2021).
